The target in one data set is JNK2α (Homo sapiens, UniProt P45984). The data set is described as follows: Kinase counter-screen, Ki. Format: biochemical. To be noted: apparent Ki. On the technique in general: A counterscreen serves to expose hits that act by an unwanted route or on another target.
In a further data set the target is P38δ (Homo sapiens, UniProt O15264). Kind of data set: Kinase counter-screen, Ki. The format is biochemical. Particulars: apparent Ki.
Data set [1] is described as follows: Phase I study: pharmacokinetic analysis. The format is in vivo, human. Particulars: for AUC(0-t) / Cmax: plasma.
Experimental: Blood samples were collected prior to dosing, and then at 0.5 (±5 min), 1 (±5 min), 2 (±10 min), 4 (±10 min), 6 (±10 min), 8 (±10 min), and 12 (±2 hr) hours on Day 1 (Visit 2; baseline/initiation of treatment) and Day 15 (Visit 4; at steady state) after the morning dose. On Day 22, prior to dose administration, a final blood sample was collected for pharmacokinetic analyses. Urine samples were collected predose and at the 1- to 6-hour and 6- to 12-±2-hour intervals postdose on Days 1 and 15. […] Standard pharmacokinetic parameters were obtained using Phoenix WinNonlin (Pharsight) with a noncompartmental method. Relationship between dose and exposure was calculated using standard least-squares regression analysis.
The target in a further data set is JNK3 (Homo sapiens, UniProt P53779). The data set is described as follows: Kinase counter-screen, Ki. The format is biochemical.
A further data set addresses CDK6/cycinD3 (Homo sapiens, UniProt Q00534). The data set is described as follows: Kinase counter-screen, Ki. The format is biochemical. To be noted: apparent Ki.
In another data set the test system is RKO colorectal cell line. The data set is described as follows: Western blot of nuclear and cytoplasmic fractions. The format is cell-based. To be noted: versus DMSO. How it is done:
For Western blot analysis, A375 cells were seeded onto 10 cm dishes in Dulbecco's Modified Eagle's Medium plus 10% (v/v) FBS. Cells were allowed to adhere overnight prior to the addition of test compound or vehicle. For experiments with RKO cells, these cells were seeded in 6-well plates or 10 cm dishes with McCoy's 5A+10% (v/v) FBS. Cells were then treated at the desired concentration and duration. Cells were harvested by trypsinization, pelleted, and snap frozen. Lysates were prepared with RIPA buffer supplemented with protease and phosphatase inhibitor cocktails (Roche), clarified by centrifugation at 11,000 rpm for 10 minutes, and quantitated by bicinchoninic acid assay. Samples were resolved by SDS-PAGE, blotted onto polyvinylidene difluoride membranes, and probed using antibodies (i.e., pRB [Ser780], cat. no. 9307; CCND1, cat. no. ab6152; BCL-xL, cat. no. 2762; PARP, cat. no. 9542; DUSP6, cat. no. 3058S) directed to the indicated targets.
In resting cells, ERK1/2 localizes to the cytoplasm, and once stimulated pERK1/2 migrates to target organelles, particularly the nucleus where transcriptional targets are activated (Wainstein et al. 2016). In DMSO-treated control cells, pERK1/2 is evident in both nuclear and cytoplasmic fractions, which is likely reflective of MAPK pathway activity due to the presence of BRAF^V600E in this cell line.

Like-named read-outs stand apart in the source and are kept apart here.

What is called Cmax is the highest concentration seen after dosing.

Chain of P38δ (O15264 whole entry): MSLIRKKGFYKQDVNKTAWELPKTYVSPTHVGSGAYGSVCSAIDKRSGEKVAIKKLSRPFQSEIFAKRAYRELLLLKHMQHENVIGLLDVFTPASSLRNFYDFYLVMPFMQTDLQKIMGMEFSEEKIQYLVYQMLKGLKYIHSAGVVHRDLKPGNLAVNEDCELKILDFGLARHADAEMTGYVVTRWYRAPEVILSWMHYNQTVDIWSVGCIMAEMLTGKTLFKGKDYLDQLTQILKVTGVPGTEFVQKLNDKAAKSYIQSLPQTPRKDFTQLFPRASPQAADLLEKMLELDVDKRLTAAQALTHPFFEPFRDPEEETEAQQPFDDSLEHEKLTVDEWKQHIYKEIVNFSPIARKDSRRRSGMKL
Chain of CDK6/cycinD3 (Q00534 whole entry, species assumed): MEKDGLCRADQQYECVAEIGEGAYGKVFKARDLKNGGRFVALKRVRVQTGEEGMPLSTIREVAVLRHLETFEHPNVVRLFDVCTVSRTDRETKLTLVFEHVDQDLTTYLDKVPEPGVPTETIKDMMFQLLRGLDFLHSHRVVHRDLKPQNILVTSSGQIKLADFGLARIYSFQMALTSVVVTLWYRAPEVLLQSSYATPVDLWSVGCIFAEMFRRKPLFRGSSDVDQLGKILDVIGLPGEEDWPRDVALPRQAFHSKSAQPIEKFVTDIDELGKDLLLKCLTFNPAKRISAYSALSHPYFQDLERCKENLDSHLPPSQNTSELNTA
Chain of CDK6/cycinD3 (P30281 whole entry partner, species assumed): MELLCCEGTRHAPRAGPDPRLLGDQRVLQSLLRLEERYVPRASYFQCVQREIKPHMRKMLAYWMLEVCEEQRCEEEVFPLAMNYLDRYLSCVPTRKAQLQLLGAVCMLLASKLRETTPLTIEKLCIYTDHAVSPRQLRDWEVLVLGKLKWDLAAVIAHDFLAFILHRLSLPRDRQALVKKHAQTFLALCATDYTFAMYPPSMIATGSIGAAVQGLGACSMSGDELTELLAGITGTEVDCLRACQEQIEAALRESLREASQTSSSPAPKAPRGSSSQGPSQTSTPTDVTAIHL
Chain of JNK3 (P53779 whole entry, species assumed): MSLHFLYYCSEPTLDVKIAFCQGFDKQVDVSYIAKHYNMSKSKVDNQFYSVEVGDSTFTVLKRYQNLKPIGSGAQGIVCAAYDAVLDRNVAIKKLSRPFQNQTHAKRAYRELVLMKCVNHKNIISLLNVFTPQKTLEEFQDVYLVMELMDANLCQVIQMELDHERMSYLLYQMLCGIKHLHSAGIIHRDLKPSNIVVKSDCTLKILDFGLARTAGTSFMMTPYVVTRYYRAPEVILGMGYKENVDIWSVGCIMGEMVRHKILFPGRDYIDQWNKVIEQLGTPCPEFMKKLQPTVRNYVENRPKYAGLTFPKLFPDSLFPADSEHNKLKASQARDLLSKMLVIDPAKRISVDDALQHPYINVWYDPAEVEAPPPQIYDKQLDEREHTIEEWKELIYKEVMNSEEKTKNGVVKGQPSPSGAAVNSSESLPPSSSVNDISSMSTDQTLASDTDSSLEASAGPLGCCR
Chain of JNK2α (P45984 whole entry): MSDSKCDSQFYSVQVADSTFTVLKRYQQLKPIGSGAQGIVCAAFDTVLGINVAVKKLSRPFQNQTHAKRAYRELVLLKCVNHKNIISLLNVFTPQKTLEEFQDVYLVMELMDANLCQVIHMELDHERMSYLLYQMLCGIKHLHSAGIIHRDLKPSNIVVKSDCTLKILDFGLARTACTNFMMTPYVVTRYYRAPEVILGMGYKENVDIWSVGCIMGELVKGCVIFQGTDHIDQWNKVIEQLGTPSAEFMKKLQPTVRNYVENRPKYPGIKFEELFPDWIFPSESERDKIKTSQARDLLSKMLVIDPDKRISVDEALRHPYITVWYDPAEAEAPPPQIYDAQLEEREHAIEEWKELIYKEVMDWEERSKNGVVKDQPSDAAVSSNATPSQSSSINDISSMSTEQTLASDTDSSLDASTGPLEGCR
Text for CDK6/cycinD3: (§1) The ATP concentrations were approximately equal to the Km in all assays.
Text for JNK2α: as §1
Text for JNK3: as §1
Text for P38δ: as §1

For the compound `CC(C)Nc1cc(-c2c[nH]c(C(=O)N[C@H](CO)c3cccc(Cl)c3)c2)c(Cl)cn1` [BVD-523], the Ki is 650 nM on JNK2α, 240 nM on P38δ, 1300 nM on JNK3 and 90 nM on CDK6/cycinD3. The “urinary excretion within 12 hours postdose” value in data set [1] (first dose and steady state, all dose levels) is listed as < 0.2 % of the dose. In data set [1] (human, plasma and urine, oral, n≥3, read-out: mean renal clearance values), the CL renal fell in the range of 0.248 to 0.5 mL/min. Moreover, the AUC(0-t) in data set [1] (human, oral, 10 mg, 10 mg BID, Day 1, read-out: AUC0-12) was found to be 220 ng·h/mL; in data set [1] (human, oral, 10 mg, 10 mg BID, Day 15, read-out: AUC0-12) it was 234 ng·h/mL; in data set [1] (human, oral, 20 mg, 20 mg BID, Day 1, read-out: AUC0-12), 91.7 ng·h/mL; in data set [1] (human, oral, 20 mg, 20 mg BID, Day 15, read-out: AUC0-12), 98.7 ng·h/mL; in data set [1] (human, oral, 40 mg, 40 mg BID, Day 1, read-out: AUC0-12) it was 614 ng·h/mL; in data set [1] (human, oral, 40 mg, 40 mg BID, Day 15, read-out: AUC0-12) it was 999 ng·h/mL. Further, the AUC(0-t) in data set [1] (human, oral, 150 mg, 150 mg BID, Day 1, read-out: AUC0-12) was determined as 817 ng·h/mL; in data set [1] (human, oral, 150 mg, 150 mg BID, Day 15, read-out: AUC0-12), 2770 ng·h/mL; in data set [1] (human, oral, 300 mg, 300 mg BID, Day 1, read-out: AUC0-12 ± SD), 4110 ± 1140 ng·h/mL; in data set [1] (human, oral, 300 mg, 300 mg BID, Day 15, read-out: AUC0-12 ± SD) it was 4460 ± 2460 ng·h/mL; in data set [1] (human, oral, 600 mg, 600 mg BID, Day 1, read-out: AUC0-12 ± SD) it was 2750 ± 1740 ng·h/mL; in data set [1] (human, oral, 600 mg, 600 mg BID, Day 15, read-out: AUC0-12 ± SD), 24400 ± 16200 ng·h/mL. Moreover, the AUC(0-t) in data set [1] (human, oral, 750 mg, 750 mg BID, Day 1, read-out: AUC0-12 ± SD) came out at 10700 ng·h/mL; in data set [1] (human, oral, 750 mg, 750 mg BID, Day 15, read-out: AUC0-12 ± SD), 23300 ng·h/mL; in data set [1] (human, oral, 750 mg, Day 15, reduced from 750 mg to 450 mg/dose, read-out: AUC0-12, individual subject), 10700 ng·h/mL; in data set [1] (human, oral, 900 mg, 900 mg BID, Day 1, read-out: AUC0-12 ± SD), 10800 ng·h/mL; in data set [1] (human, oral, 900 mg, 900 mg BID, Day 15, read-out: AUC0-12 ± SD), 15900 ng·h/mL. The Cmax in data set [1] (human, oral, 10 mg, 10 mg BID, Day 1, read-out: Cmax) was found to be 48.2 ng/mL; in data set [1] (human, oral, 10 mg, 10 mg BID, Day 15, read-out: Cmax), 45.7 ng/mL; in data set [1] (human, oral, 20 mg, 20 mg BID, Day 1, read-out: Cmax), 14.9 ng/mL; in data set [1] (human, oral, 20 mg, 20 mg BID, Day 15, read-out: Cmax), 15.8 ng/mL; in data set [1] (human, oral, 40 mg, 40 mg BID, Day 1, read-out: Cmax), 100 ng/mL; in data set [1] (human, oral, 40 mg, 40 mg BID, Day 15, read-out: Cmax) it was 191 ng/mL. For the same compound, the Cmax was determined as 133 ng/mL in data set [1] (human, oral, 150 mg, 150 mg BID, Day 1, read-out: Cmax); 326 ng/mL in data set [1] (human, oral, 150 mg, 150 mg BID, Day 15, read-out: Cmax); 765 ± 234 ng/mL in data set [1] (human, oral, 300 mg, 300 mg BID, Day 1, read-out: Cmax ± SD); 586 ± 257 ng/mL in data set [1] (human, oral, 300 mg, 300 mg BID, Day 15, read-out: Cmax ± SD); 2750 ± 170 ng/mL in data set [1] (human, oral, 600 mg, 600 mg BID, Day 15, read-out: Cmax ± SD); 1450 ± 539 ng/mL in data set [1] (human, oral, 750 mg, 750 mg BID, Day 1, read-out: Cmax ± SD). Also, the Cmax in data set [1] (human, oral, 750 mg, 750 mg BID, Day 15, read-out: Cmax ± SD) is 2290 ng/mL; in data set [1] (human, oral, 750 mg, Day 15, reduced from 750 mg to 450 mg/dose, read-out: Cmax, individual subject), 1300 ng/mL; in data set [1] (human, oral, 900 mg, 900 mg BID, Day 1, read-out: Cmax ± SD), 1430 ± 1010 ng/mL; in data set [1] (human, oral, 900 mg, 900 mg BID, Day 15, read-out: Cmax ± SD), 1720 ± 328 ng/mL. In addition, the “dose-exposure relationship (Cmax and AUC)” value in data set [1] (up to 600 mg BID) is “linear and dose proportional”.

As to `O=C(Nc1ccc2[nH]nc(-c3ccncc3)c2c1)[C@@H]1CCN(CC(=O)N2CCN(c3ccc(-c4ncccn4)cc3)CC2)C1` [SCH772984], the “pERK1/2 in nuclear and cytoplasmic fractions” value with RKO colorectal cell line was “inhibited phosphorylation of ERK1/2 and RSK”.

Source of the values: US20210038587A1, “METHODS AND COMPOSITIONS FOR TREATING NON-ERK MAPK PATHWAY INHIBITOR-RESISTANT CANCERS” (BIOMED VALLEY DISCOVERIES, INC., priority 2013, published 2021).
